Results from patent publication US20240140895A1, “NOVEL AROMATIC MOLECULES” (XENIOPRO GmbH, priority 2018, published 2024).

Key:
Assay type in all cases: cell-based
[1] = tested on: CAL-27 cells (human tongue squamous cell carcinoma cells); experiment: Proliferation assay (alamarBlue) with CAL-27 cells; conditions: read-out: Activity Range: weighted arithmetic mean (AVEw) of normalized fluorescence intensity relative to DMSO basis level 1.0
Description: (§1) The antiproliferative activities of compounds falling under formula (Ia), (Tb) and (Ic), respectively, were investigated on cells or cell lines originating from a disorder of the haematopoietic system, including the myeloid cell compartment and the lymphoid cell compartment (T-cells and B-cells), the neuroendocrine system, the cervix, the breast, the ovaries, the lung, the gastrointestinal tract, and the mucosal epithelium, as well as from the skin epithelium and from the muscle. To this end, HL-60 cells, NB-4 cells, HH cells, RPMI-8402 cells, TANOUE cells, TT cells, HeLa cells, MDA-MB-231 cells, FU-OV-1 cells, LOU-NH91 cells, 23132/87 cells, CAL-27 cells, BHY cells, SCC-25 cells, A-431 cells, human primary epidermal keratinocytes (HPEK), and C2C12 cells were seeded into 96-well plates suitable for fluorescence assays (CORNING #3598) at following initial cell numbers: 1000 cells per well for HL-60; 1000 cells per well for NB-4; 5000 cells per well for HH; 5000 cells per well for RPMI-8402; 1500 cells per well for TANOUE; 9000 cells per well for TT; 2000 cells per well for HeLa; 3000 cells per well for MDA-MB-231; 3000 cells per well for FU-OV-1; 4000 cells per well for LOU-NH91; 2000 cells per well for 23132/87; 2000 cells per well for CAL-27; 1500 cells per well for BHY; 1500 cells per well for SCC-25; 700 cells per well for A-431; 1000 cells per well for HPEK; 500 cells per well for C2-C12. The cells were treated with compounds at indicated final concentrations (diluted from the 1000× stock-solutions in DMSO to a final DMSO concentration of 0.1% v/v in H2O (Water For Injection, WFI, Fisherscientific #10378939)) or with the empty carrier DMSO at 0.1% v/v as control for 5 days. At day 5 after starting the treatments the cells were subjected to the alamarBlue® Proliferation Assay (Bio-Rad Serotec GmbH, BUF012B) according to the protocol of the manufacturer. The readout was taken with a multi-well plate-reader in the fluorescence mode with applying a filter for excitation at 560 nm (band width 10 nm) and for emission at 590 nm (band width 10 nm). Control treatments for growth inhibition with commercial compounds such as Methotrexate (MTREX) and Resveratrol (RES) were included on every plate. Some of the test compounds of the present invention were obtained and applied as their salts. According cases are indicated in the column “Specification” in Table 30 to Table 62 and by their sum formula in Table 63.
(§2) The assays were performed in duplicate or more replicates of independent single experiments each containing a six-fold replicate for every condition. For every individual plate, the measured fluorescence intensity values of the conditions with compound treatment were normalized against the corresponding equally weighted arithmetic mean of the fluorescence intensity values of the six DMSO treated control wells in order to obtain the relative values to a baseline level of 1.0.
(§3) Two independent outlier analyses were performed according to the methods by Peirce and Chauvenet (Ross, Journal of Engineering Technology 2003, 1-12). Outliers confirmed by at least one of the methods were excluded from the calculations but not more than one value out of six per compound within a single experiment. The weighted arithmetic mean (here abbreviated as AVEw) for each compound was calculated from the normalized values over all independent replicates of the single experiments comprising the six replicates each. The corresponding standard deviation for the weighted arithmetic mean was calculated according to the method described by Bronstein et al. (Bronstein, Semendjajew, Musiol, Muhlig, Taschenbuch der Mathematik, 5th edition 2001 (German), publisher: Verlag Harri Deutsch, Frankfurt am Main and Thun) and was combined with the Gauβ′ error propagation associated with the performed calculation for the normalization. The resulting standard deviation is herein referred to as “combined standard deviation”. […]

[2] = tested on: HH cells (human cutaneous T-cell lymphoma cells); experiment: Proliferation assay (alamarBlue) with HH cells; conditions: Table 34, compound at 20 μM, read-out: Activity Range (AVEw, weighted arithmetic mean of normalized fluorescence intensity, DMSO = 1.0)
Description: as §1, §2, §3

[3] = tested on: HL-60 cells (human acute myeloid leukemia cells); experiment: Proliferation assay (alamarBlue) with HL-60 cells
Description: as §1, §2, §3

[4] = tested on: BHY cells (human oral squamous cell carcinoma cells); experiment: Proliferation assay (alamarBlue) with BHY cells; conditions: read-out: Activity Range: weighted arithmetic mean (AVEw) of normalized fluorescence intensity relative to DMSO basis level 1.0
Description: as §1, §2, §3

[5] = tested on: LOU-NH91 cells (human lung squamous cell carcinoma cells); experiment: Proliferation assay (alamarBlue) with LOU-NH91 cells
Description: (§4) The antiproliferative activities of compounds falling under formula (Ia), (Tb) and (Ic), respectively, were investigated on cells or cell lines originating from a disorder of the haematopoietic system, including the myeloid cell compartment and the lymphoid cell compartment (T-cells and B-cells), the neuroendocrine system, the cervix, the breast, the ovaries, the lung, the gastrointestinal tract, and the mucosal epithelium, as well as from the skin epithelium and from the muscle. To this end, HL-60 cells, NB-4 cells, HH cells, RPMI-8402 cells, TANOUE cells, TT cells, HeLa cells, MDA-MB-231 cells, FU-OV-1 cells, LOU-NH91 cells, 23132/87 cells, CAL-27 cells, BHY cells, SCC-25 cells, A-431 cells, human primary epidermal keratinocytes (HPEK), and C2C12 cells were seeded into 96-well plates suitable for fluorescence assays (CORNING #3598) at following initial cell numbers: 1000 cells per well for HL-60; 1000 cells per well for NB-4; 5000 cells per well for HH; 5000 cells per well for RPMI-8402; 1500 cells per well for TANOUE; 9000 cells per well for TT; 2000 cells per well for HeLa; 3000 cells per well for MDA-MB-231; 3000 cells per well for FU-OV-1; 4000 cells per well for LOU-NH91; 2000 cells per well for 23132/87; 2000 cells per well for CAL-27; 1500 cells per well for BHY; 1500 cells per well for SCC-25; 700 cells per well for A-431; 1000 cells per well for HPEK; 500 cells per well for C2-C12. […] The readout was taken with a multi-well plate-reader in the fluorescence mode with applying a filter for excitation at 560 nm (band width 10 nm) and for emission at 590 nm (band width 10 nm). […]
(§5) The assays were performed in duplicate or more replicates of independent single experiments each containing a six-fold replicate for every condition. For every individual plate, the measured fluorescence intensity values of the conditions with compound treatment were normalized against the corresponding equally weighted arithmetic mean of the fluorescence intensity values of the six DMSO treated control wells in order to obtain the relative values to a baseline level of 1.0. […]

[6] = tested on: NB-4 cells (human acute promyelocytic leukemia cells); experiment: Proliferation assay (alamarBlue) with NB-4 cells
Description: as §1, §2, §3

[7] = tested on: RPMI-8402 cells (human T cell acute lymphoblastic leukemia cells); experiment: Proliferation assay (alamarBlue) with RPMI-8402 cells
Description: as §1, §2, §3

[8] = tested on: HeLa cells (human cervical adenocarcinoma cells); experiment: Proliferation assay (alamarBlue) with HeLa cells
Description: as §4, §5

[9] = tested on: TT cells (human medullary thyroid carcinoma cells); experiment: Proliferation assay (alamarBlue) with TT cells
Description: as §4, §5

[10] = tested on: FU-OV-1 cells (human ovarian carcinoma cells); experiment: Proliferation assay (alamarBlue) with FU-OV-1 cells
Description: as §4, §5

[11] = tested on: SCC-25 cells (human tongue squamous cell carcinoma cells); experiment: Proliferation assay (alamarBlue) with SCC-25 cells
Description: as §1, §2, §3

[12] = tested on: TANOUE cells (human B cell leukemia cells); experiment: Proliferation assay (alamarBlue) with TANOUE cells
Description: as §1, §2, §3

[13] = Homo sapiens, read-out: Activity Range: weighted arithmetic mean (AVEw) of normalized fluorescence intensity relative to DMSO basis level 1.0

## Oc1ccc(C=Cc2cc(O)cc(O)c2)cc1 [RES, resveratrol, reference compound]
[1]
  activity at 20 µM: 80 ± 10%
[2]
  activity at 20 µM: 60 ± 10%
[3]; Homo sapiens, Table 30, compound at 20 μM, read-out: Activity Range (AVEw, weighted arithmetic mean of normalized fluorescence intensity, DMSO = 1.0)
  activity at 20 µM: 40 ± 10%
[3]; Table 31, compound at 20 μM
  Activity Range (AVEw, weighted arithmetic mean of normalized fluorescence intensity, DMSO = 1.0): 0.4 ± 0.1
[4]
  activity at 20 µM: 50 ± 10%
[5]; 20 μM
  Activity Range: weighted arithmetic mean (AVEw) of normalized fluorescence intensity relative to DMSO basis level 1.0: 0.9 ± 0.1
[5]; control at 40 μM
  Activity Range: weighted arithmetic mean (AVEw) of normalized fluorescence intensity relative to DMSO basis level 1.0: 0.7 ± 0.0
[6]; Homo sapiens, Table 32, compound at 20 μM, read-out: Activity Range (AVEw, weighted arithmetic mean of normalized fluorescence intensity, DMSO = 1.0)
  activity at 20 µM: 10%
[6]; Table 33, compound at 20 μM
  Activity Range (AVEw, weighted arithmetic mean of normalized fluorescence intensity, DMSO = 1.0): 0.1 ± 0.0
[7]; 20 μM
  Activity Range: weighted arithmetic mean (AVEw) of normalized fluorescence intensity relative to DMSO basis level 1.0: 0.6 ± 0.0
[7]; [13]
  activity at 20 µM: 60%
[8]; compound at 20 μM
  Activity Range: weighted arithmetic mean (AVEw) of normalized fluorescence intensity relative to DMSO basis level 1.0: 0.9 ± 0.0
[8]; control at 40 μM
  Activity Range: weighted arithmetic mean (AVEw) of normalized fluorescence intensity relative to DMSO basis level 1.0: 0.4 ± 0.1
[9]; compound at 20 μM
  Activity Range: weighted arithmetic mean (AVEw) of normalized fluorescence intensity relative to DMSO basis level 1.0: 0.9 ± 0.0
[9]; control at 40 μM
  Activity Range: weighted arithmetic mean (AVEw) of normalized fluorescence intensity relative to DMSO basis level 1.0: 0.7 ± 0.0
[10]; 20 μM
  Activity Range: weighted arithmetic mean (AVEw) of normalized fluorescence intensity relative to DMSO basis level 1.0: 0.7 ± 0.0
[10]; control at 40 μM
  Activity Range: weighted arithmetic mean (AVEw) of normalized fluorescence intensity relative to DMSO basis level 1.0: 0.4 ± 0.0
[11]; 20 μM
  Activity Range: weighted arithmetic mean (AVEw) of normalized fluorescence intensity relative to DMSO basis level 1.0: 0.4 ± 0.1
[11]; [13]
  activity at 20 µM: 40 ± 10%
[12]; 20 μM
  Activity Range: weighted arithmetic mean (AVEw) of normalized fluorescence intensity relative to DMSO basis level 1.0: 0.1 ± 0.0
[12]; Homo sapiens, B-cell, read-out: Activity Range: weighted arithmetic mean (AVEw) of normalized fluorescence intensity relative to DMSO basis level 1.0
  activity at 20 µM: 10%
